In US20260007613A1, “LONG-ACTING LOW-TOXICITY NOVEL CATIONIC LIPID COMPOUNDS AND COMPOSITION THEREOF” (BEIJING YOUCAREKECHUANG PHARMACEUTICAL TECHNOLOGY CO., LTD., priority 2023, published 2026):

How the values were obtained:
[1] = test system: 293T cells; assay: Cell survival rate determination (CCK-8); type: cell-based; settings: LNP formulation of Fluc-mRNA, 24 hours, CCK-8
Outline: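 Readout was CCK-8 absorbance (450 nm, 1 h) taken after a 24 h exposure of overnight-adhered 293T cells (10,000 per well, 96-well) to Lipofectamine 3000 or to LNPs carrying Fluc-mRNA, lipid molar ratio 49:10:39.5:1.5 cationic/neutral/structured/polymer-conjugated.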

[2] = test system: female BALB/C mice; assay: Live imaging in mice: protein expression of Fluc-mRNA delivered by LNP formulations; type: in vivo
Method: In addition, the protein expression and duration of mRNA in mice delivered by the cationic lipid delivery carriers designed were also verified.
(§1) The LNP formulation containing […] Fluc-mRNA was injected intramuscularly into female BALB/C mice aged 4 to 6 weeks old and weighed 17 to 19 g, and the mice were intraperitoneally injected with fluorescent imaging substrate at specific time points after administration (6 h, 24 h, 48 h and 7 d), where the mice were free to move for 5 minutes, and then the average radiation intensity (corresponding to fluorescence expression intensity) of the protein expression of the mRNA carried by the LNP in the mice was detected by the IVIS Spectrum small animal live imaging device.

[3] = test system: liver; assay: Distribution of liposomes in mice: protein expression in the liver (live imaging); type: in vivo; settings: at 6 h, intramuscular injection
Method: as §1
At 24 h, the LNP formulations prepared from all compounds had been metabolized in the liver and had no protein expression.

[4] = test system: 293T cells; assay: Fluorescent detection of Fluc-mRNA (cell transfection efficiency of LNP formulations); type: cell-based; settings: for Relative light unit (RLU): LNP formulation of Fluc-mRNA, 96-well plate, 24 hours; for Multiples (YK-305): RLU of YK-305 / RLU of the lipid of the line; for Multiples (YK-310): RLU of YK-310 / RLU of the lipid of the line; for Multiples (YK-312): RLU of YK-312 / RLU of the lipid of the line; for Ratio relative to SM-102: RLU of the lipid / RLU of SM-102, times that of SM-102; for Multiples (YK-318): RLU of YK-318 / RLU of the lipid of the line; for Multiples (YK-318) / Multiples (YK-319): Tables 5, 7, 11; for Multiples (YK-319): RLU of YK-319 / RLU of the lipid of the line
Outline: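 Transfection read-out: IVIS imaging after […], 24 h after adding LNPs (lipid molar ratio 49:10:39.5:1.5 cationic/neutral/structured/polymer-lipid; […] Fluc-mRNA). Adherent 293T cells were seeded overnight at 10,000 per well beforehand.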

[5] = Particle size and polydispersity index (PDI) of lipid nanoparticles by dynamic light scattering; type: physicochemical; settings: LNP formulation prepared from the cationic lipid, 25° C.
Method: The particle size and polydispersity index (PDI) were determined by dynamic light scattering using Malvern laser particle size analyzer.
10 μL of the liposome solution was weighed, diluted to 1 mL with RNase-free deionized water, and added to the sample pool. Each sample was measured in triplicate. The measurement conditions were: […] scattering angle, and 25° C.

[6] = 6 h after intramuscular injection
[7] = 24 h after intramuscular injection
[8] = 48 h after intramuscular injection
[9] = 7 d after intramuscular injection

Structure (SMILES) | Cell survival rate (%) [1] [%] | average radiation intensity [2, 6] | average radiation intensity [2, 7] | average radiation intensity [2, 8] | average radiation intensity [2, 9] | protein expression in the liver [3] | Relative light unit (RLU) [4] [RLU] | Multiples (YK-305) [4] | Multiples (YK-310) [4] | Multiples (YK-312) [4] | Ratio relative to SM-102 [4] | PDI (%) [5] [%] | Particle size (nm) [5] [nm] | Multiples (YK-318) [4] | Multiples (YK-319) [4]
CCCCCCCCC(CCCCCCCC)OC(=O)CCCCCN(CCCCCC(=O)OC(CCCCCCCC)CCCCCCCC)C[C@H](O)CN(CC)CCO [YK-313] | 68.93 | 442180 | 104430 | 25560 | 3235 | no protein expression in the liver | 866536 | 31.63 | 29.77 | 23.25 | 0.54 | 17.7 | 241 | – | –
CCCCCCC(CCCCCC)CCOC(=O)CCCCCCCN(CCO)CCCCCCCC(=O)OCCC(CCCCCC)CCCCCC [Compound 23, bis(3-hexylnonyl)-8,8′-((2-hydroxyethyl)azanediyl)dioctanoate, reference compound] | 71.50 | 589400 | 104530 | 33125 | 6240 | had protein expression in the liver | 1356022 | 20.21 | 19.02 | 14.86 | 0.85 | 15.2 | 147 | 8.25 | 18.04
CCCCCCCCC(CCCCCC)C(=O)OCCCCCCN(CCCCO)CCCCCCOC(=O)C(CCCCCC)CCCCCCCC (centres unmarked) [ALC-0315, reference compound] | 51.03 | 863760 | 190480 | 39810 | 7047 | had protein expression in the liver | – | 13.48 | 12.69 | 9.91 | 1.27 | 21.2 | 231 | 5.50 | 12.03
CCCCCCCCCCOC(=O)CCCN(CCCCCC(=O)OCCC(CCCCCC)CCCCCC)C[C@H](O)CN(CC)CCO [YK-309, (S)-3-hexylnonyl-6-(4-(decyloxy)-4-oxobutyl)(2-hydroxy-3-(((2-hydroxyethyl)(ethyl)amino)propyl)amino)hexanoate] | 31.61 | 65680 | 16820 | 6551 | 1256 | – | 125370 | 218.62 | 205.77 | 160.71 | 0.08 | 27.6 | 232 | – | –
CCCCCCCCC(CCCCCCCC)OC(=O)CCCCCCCN(CCO)CCCCCCCC(=O)OCCC(CCCCCC)CCCCCC [Compound 21, reference compound] | 70.21 | 610340 | 109840 | 30980 | 6445 | had protein expression in the liver | 1432170 | 19.14 | 18.01 | 14.07 | 0.89 | – | – | 7.81 | 17.08
CCCCCCCCCCCOC(=O)CCCCCN(CCO)CCCCCCCC(=O)OC(CCCCCCCC)CCCCCCCC [SM-102, reference compound] | 69.45 | 701230 | – | – | – | had protein expression in the liver | – | – | 16.08 | 12.56 | 1.00 | 28.2 | 177 | 6.98 | 15.25
CCCCCCCCCCCCC(O)CN(C)CCCCCC(=O)OCC(CCCCCC)CCCCCCCC (centres unmarked) [HHMA, reference compound] | 66.47 | 651020 | 119940 | 32557 | 5871 | had protein expression in the liver | 2006110 | 13.66 | 12.86 | 10.04 | 1.25 | 19.3 | 150 | 5.58 | 12.20
